ChEMBL document CHEMBL2384902, “Synthesis and ionophoric activities of functionalized bis(choloyl) conjugates with a rigid core” (Bioorg Med Chem Lett, 2013)

Tests used:
[1] = Ratio of k2 to K for ionophoric activity across egg-yolk L-alpha-phosphatidylcholine-based liposomal membranes (unknown origin)
[2] = Ionophoric activity across egg-yolk L-alpha-phosphatidylcholine-based liposomal membranes (unknown origin) assessed as induction of pH discharge at internal pH 7 and external aqueous phase pH 8 by pyranine dye-based method; format: physicochemical; conditions: artificial membrane
[3] = Ionophoric activity across egg-yolk L-alpha-phosphatidylcholine-based liposomal membranes (unknown origin) assessed as induction of pH discharge at 0.5 to 3 mol % at internal pH 7 and external aqueous phase pH 8 by pyranine dye-based method; format: physicochemical; conditions: artificial membrane
[4] = Ionophoric activity across egg-yolk L-alpha-phosphatidylcholine-based liposomal membranes (unknown origin) assessed as change in fluorescence intensity at 3 mol % by pyranine dye-based method in presence of chloride ions in internal and sulfate ions in external vesicles; format: physicochemical; conditions: artificial membrane

K [2] | Activity [3] | Activity [4] | SMILES | Ratio (10'-4/min.mol%'-4) [1] | Ratio (10'-5/min.mol%'-4) [1]
1.81 ×10⁻² /min | Active | Not Active | C[C@H](CCC(=O)NC(CCCCN)C(=O)NCc1ccc(CNC(=O)C(CCCCN)NC(=O)CC[C@@H](C)[C@H]2CC[C@H]3[C@@H]4[C@H](O)C[C@@H]5C[C@H](O)CC[C@]5(C)[C@H]4C[C@H](O)[C@]23C)cc1)[C@H]1CC[C@H]2[C@@H]3[C@H](O)C[C@@H]4C[C@H](O)CC[C@]4(C)[C@H]3C[C@H](O)[C@]12C (some centres not stated) | 5.2 | –
1.81 ×10⁻² /min | Active | Not Active | C[C@H](CCC(=O)NC(CCCCN)C(=O)Nc1ccc(NC(=O)C(CCCCN)NC(=O)CC[C@@H](C)[C@H]2CC[C@H]3[C@@H]4[C@H](O)C[C@@H]5C[C@H](O)CC[C@]5(C)[C@H]4C[C@H](O)[C@]23C)cc1)[C@H]1CC[C@H]2[C@@H]3[C@H](O)C[C@@H]4C[C@H](O)CC[C@]4(C)[C@H]3C[C@H](O)[C@]12C (some centres not stated) | 5.5 | –
– | Active | – | C[C@H](CCC(=O)NCc1ccc(CNC(=O)CC[C@@H](C)[C@H]2CC[C@H]3[C@@H]4[C@H](O)C[C@@H]5C[C@H](O)CC[C@]5(C)[C@H]4C[C@H](O)[C@]23C)cc1)[C@H]1CC[C@H]2[C@@H]3[C@H](O)C[C@@H]4C[C@H](O)CC[C@]4(C)[C@H]3C[C@H](O)[C@]12C | – | 9
– | Active | Not Active | CC(=O)NCCCCC(NC(=O)CC[C@@H](C)[C@H]1CC[C@H]2[C@@H]3[C@H](O)C[C@@H]4C[C@H](O)CC[C@]4(C)[C@H]3C[C@H](O)[C@]12C)C(=O)NCc1ccc(CNC(=O)C(CCCCNC(C)=O)NC(=O)CC[C@@H](C)[C@H]2CC[C@H]3[C@@H]4[C@H](O)C[C@@H]5C[C@H](O)CC[C@]5(C)[C@H]4C[C@H](O)[C@]23C)cc1 (some centres not stated) | – | –
